Assay results taken from patent publication US12012404B2, “Pyrimidoheterocyclic compounds and application thereof” (D3 BIO (WUXI) CO., LTD., priority 2020, dated 2024).

Assays:
[1] = Stability assay in whole blood, CD-1 mice; format: in vitro ADME; conditions: CD-1 mice whole blood, 5 μM, 37° C.
Method: (§1) Purpose of the assay: Stabilities of the assay compounds in whole blood of CD-1 mice, SD rats, Beagle dogs and cynomolgus monkeys were assayed, respectively.
(§2) Procedure of the assay: On the day of the assay or the day before the assay, fresh whole blood from CD-1 mice, SD rats, beagle dogs, and cynomolgus monkeys was collected using anticoagulant EDTA-K2. Prior to the start of the assay, the whole blood was mixed with PBS in 1:1 (v:v) and the mixture was preheated in a 37° C. water bath for 10-20 minutes. […] […] All samples were incubated in a 37° C. water bath. The final incubation concentration of the compound was 5 μM and the final incubation concentration of the control compound was 2 μM. At the end of incubation for each time point, the corresponding incubation plate was removed and 100 μL of ultrapure water was immediately added to the corresponding sample wells, and mixed well. 800 μL of a solution of 200 ng/mL tolbutamide and labetalol in acetonitrile was added to precipitate the protein. The sample plates were sealed and shaken well, and then centrifuged at 3220×g for 20 min. 150 μL of supernatant was taken out and analyzed by LC/MS/MS.

[2] = Stability assay in whole blood, SD rats; format: in vitro ADME; conditions: 5 μM, 37° C.
Method: as §1, §2

[3] = tested on: KRAS^G12C-mutated MIA-PA-CA-2 cells; assay: Inhibition of proliferation of KRAS^G12C-mutated MIA-PA-CA-2 cells (CellTiter-Glo, 72 h); format: cell-based, human; conditions: Homo sapiens, MIA PaCa-2, 72 h incubation
Method: Compounds were assayed for IC50 of inhibition of proliferation of KRAS^G12C-mutated MIA-PA-CA-2 cells.
The main reagent used in this assay included CellTiter-Glo (Promega, Cat. No. G7573).
The main instrument used in this assay was PerkinElmer EnVision multi-function microplate reader.
1.4 Method of the Assay • 1) Adherent cells were digested with trypsin to form a cell suspension, and the cell suspension was counted for later use. • 2) An appropriate amount of cells was added into a centrifuge tube, and a cell culture medium was added to make up the required volume; then the cells were plated to a 96-well plate at a final density of 2000 cells/well, 100 μL of culture medium. • 3) After incubating for 24 hr, the compound was formulated to 10 mM with DMSO, and serially diluted 3-fold with DPBS (Dulbecco's Phosphate Buffered Saline) to 9 points; 10 μL was added to each well in duplicate. 10 μL of DPBS per well was added to the assay control wells (Con). • 4) On the same day, 50 μL of CellTiter Glo was added to another cell culture plate without compounds, and the fluorescence value was read by EnVision. […] The fluorescence value was read by EnVision. • 6) Data analysis: The inhibition rate of cells in each well was calculated according to the following equation: […]

[4] = tested on: KRAS^G12C-mutated H358 cells; assay: H358 cell assay: inhibition of proliferation (CellTiter-Glo, 5 days); format: cell-based; conditions: Homo sapiens, 120 h; NCI-H358 cells, 5 days incubation
Method: Compounds were assayed for IC50 of inhibition of proliferation of KRAS^G12C-mutated H358 cells.
The main instrument used in this assay was a Nivo multi-label analyzer (PerkinElmer).
2.4 Method of the Assay: • 1) NCI-H358 cells were inoculated in a white 96-well plate, and each well contained 80 μL of cell suspension and 4000 NCI-H358 cells. […] The assay was carried out in duplicate. 78 μL of medium was added to the intermediate plate, and then 2 μL of the serially diluted compound was transferred to each well of the intermediate plate according to the corresponding position. After mixing well, 20 μL per well was transferred to the cell plate. […] The cell plate was incubated in a carbon dioxide incubator for 5 days. Another cell plate was prepared, and the signal value of the cell plate was read on the day of compound addition as the maximum value (Max value in the equation below) to participate in data analysis. 25 μL of cell viability chemiluminescence detection reagent was added to each well of the cell plate, and the plate was incubated at room temperature for 10 minutes to stabilize the luminescence signal. A multi-label analyzer was used for reading the plate. • 3) […]

[5] = Protein binding rate by equilibrium dialysis, CD-1 mice plasma; format: in vitro ADME; conditions: CD-1, mouse, plasma; mice, as listed in PK Table 9; read-out: Plasma protein unbound rate PPB (Unbound %)
Method: (§3) Purpose of the assay: Protein binding rate of the assay compounds in plasma of CD-1 mice, SD rats, beagle dogs, cynomolgus monkeys and human was determined by equilibrium dialysis.
(§4) Procedure of the assay: Plasma samples with a compound concentration of 2 μM were prepared using plasma of the above five species, placed in a 96-well equilibrium dialysis device, and dialyzed with phosphate buffer solution at 37±1° C. for 4 hours. Warfarin was used as the control compound in this assay. The concentrations of the assay compounds in plasma and dialysis buffer were determined by LC-MS/MS method.

[6] = Protein binding rate by equilibrium dialysis, SD rats plasma; format: in vitro ADME; conditions: rat, plasma; SD rats, as listed in PK Table 8; read-out: Plasma protein unbound rate PPB (Unbound %)
Method: as §3, §4

| Compound | Detection of assay compound content within 120 min [1] [%] | Detection of assay compound content within [2] [%] | IC50 [3] [nM] | IC50 [4] [nM] | fraction unbound at 4 h, 2 μM [5] | fraction unbound at 4 h, 2 μM [6] |
| --- | --- | --- | --- | --- | --- | --- |
| C=C(F)C(=O)N1CCN(c2nc(OCC3CCCN3C)nc3c2COC(c2c(F)c(N)cc(C)c2C(F)(F)F)C3)CC1CC#N.Cl (single isomer, unassigned) [Compound 8B hydrochloride] | 100 | 104 |  |  |  |  |
| C=C(F)C(=O)N1CCN(c2nc(OC[C@@]34CCCN3C[C@H](F)C4)nc3c2COC(c2c(F)c(N)cc(C)c2C(F)(F)F)C3)C[C@@H]1CC#N (some centres unmarked) [Compound 17] | 117 | 115 | 0.44 | 0.6 | 0.0154 | 0.048 |
